Experiment [1] has as its target 3',5'-cyclic-AMP phosphodiesterase 4A (Homo sapiens, UniProt P27815). The experiment is classed as functional.
For experiment [2], the target named is Sodium-dependent serotonin transporter (Homo sapiens, UniProt P31645).
Experiment [3] has as its target T1, Muscarinic acetylcholine receptor M2 (Homo sapiens, UniProt P08172).
T1 sequence (P08172 whole entry): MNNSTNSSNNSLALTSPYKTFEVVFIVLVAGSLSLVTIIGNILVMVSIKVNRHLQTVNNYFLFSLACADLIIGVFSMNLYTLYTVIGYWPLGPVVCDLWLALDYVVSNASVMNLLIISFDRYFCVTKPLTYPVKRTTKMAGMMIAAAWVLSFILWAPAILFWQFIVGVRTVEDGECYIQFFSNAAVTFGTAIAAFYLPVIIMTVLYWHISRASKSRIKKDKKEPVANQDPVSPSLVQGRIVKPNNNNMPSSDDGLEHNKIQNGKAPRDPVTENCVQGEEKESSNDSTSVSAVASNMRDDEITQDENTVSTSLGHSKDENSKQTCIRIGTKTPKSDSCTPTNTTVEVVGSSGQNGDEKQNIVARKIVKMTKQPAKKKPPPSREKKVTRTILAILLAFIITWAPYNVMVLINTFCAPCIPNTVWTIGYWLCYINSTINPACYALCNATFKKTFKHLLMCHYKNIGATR

Experiment [4] addresses T2, Alpha-1A adrenergic receptor (Homo sapiens, UniProt P35348).
T2 sequence (P35348 whole entry): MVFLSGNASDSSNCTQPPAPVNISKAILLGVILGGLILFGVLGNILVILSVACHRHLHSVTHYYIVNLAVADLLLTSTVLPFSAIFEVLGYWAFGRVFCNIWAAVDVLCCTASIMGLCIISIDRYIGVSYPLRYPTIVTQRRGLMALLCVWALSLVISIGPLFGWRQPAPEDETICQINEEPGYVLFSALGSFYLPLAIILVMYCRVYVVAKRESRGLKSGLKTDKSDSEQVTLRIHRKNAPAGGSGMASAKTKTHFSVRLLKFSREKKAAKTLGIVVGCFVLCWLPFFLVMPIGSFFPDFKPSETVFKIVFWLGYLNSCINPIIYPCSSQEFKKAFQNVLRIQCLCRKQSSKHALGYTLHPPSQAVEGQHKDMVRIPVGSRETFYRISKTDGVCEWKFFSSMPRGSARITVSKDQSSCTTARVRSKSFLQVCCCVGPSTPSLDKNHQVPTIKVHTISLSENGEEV
The experiment is classed as functional, cell-based.

The target of experiment [5] is Voltage-gated inwardly rectifying potassium channel KCNH2 (Homo sapiens, UniProt Q12809). It is filed as functional. The conditions noted are these: read-out: AC50.
Experiment [6] addresses T3, Prostaglandin G/H synthase 1 (Homo sapiens, UniProt P23219). The experiment is classed as functional.
Experiment [7] has as its target T4, Muscarinic acetylcholine receptor M1 (Homo sapiens, UniProt P11229).
T4 sequence (P11229 whole entry): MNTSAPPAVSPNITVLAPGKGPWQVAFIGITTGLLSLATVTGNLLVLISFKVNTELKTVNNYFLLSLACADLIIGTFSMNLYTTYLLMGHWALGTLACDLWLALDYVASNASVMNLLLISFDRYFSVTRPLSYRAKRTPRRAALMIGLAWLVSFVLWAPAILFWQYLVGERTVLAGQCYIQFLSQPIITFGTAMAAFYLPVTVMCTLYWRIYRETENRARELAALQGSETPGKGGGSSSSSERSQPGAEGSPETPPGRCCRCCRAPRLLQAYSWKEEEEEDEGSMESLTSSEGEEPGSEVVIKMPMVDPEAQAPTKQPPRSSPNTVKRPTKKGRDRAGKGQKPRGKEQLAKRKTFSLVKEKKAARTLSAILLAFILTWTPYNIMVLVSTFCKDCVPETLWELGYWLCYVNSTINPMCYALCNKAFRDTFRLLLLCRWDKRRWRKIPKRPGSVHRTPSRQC
It is filed as functional, cell-based.

The target of the next experiment is Histamine H3 receptor (Homo sapiens, UniProt Q9Y5N1).
The target of another experiment is Mu-type opioid receptor (Homo sapiens, UniProt P35372).
The target of experiment [8] is T2, Alpha-1A adrenergic receptor. The experiment is classed as functional, cell-based. The source holds these as a separate data set.
Experiment [9] addresses T3, Prostaglandin G/H synthase 1. The experiment is classed as functional. The source holds these as a separate data set.
Experiment [10] deals with cGMP-inhibited 3',5'-cyclic phosphodiesterase 3A (Homo sapiens, UniProt Q14432). It is filed as functional.
Further: assay procedure not described here.

Sequence of Sodium-dependent serotonin transporter (P31645 whole entry): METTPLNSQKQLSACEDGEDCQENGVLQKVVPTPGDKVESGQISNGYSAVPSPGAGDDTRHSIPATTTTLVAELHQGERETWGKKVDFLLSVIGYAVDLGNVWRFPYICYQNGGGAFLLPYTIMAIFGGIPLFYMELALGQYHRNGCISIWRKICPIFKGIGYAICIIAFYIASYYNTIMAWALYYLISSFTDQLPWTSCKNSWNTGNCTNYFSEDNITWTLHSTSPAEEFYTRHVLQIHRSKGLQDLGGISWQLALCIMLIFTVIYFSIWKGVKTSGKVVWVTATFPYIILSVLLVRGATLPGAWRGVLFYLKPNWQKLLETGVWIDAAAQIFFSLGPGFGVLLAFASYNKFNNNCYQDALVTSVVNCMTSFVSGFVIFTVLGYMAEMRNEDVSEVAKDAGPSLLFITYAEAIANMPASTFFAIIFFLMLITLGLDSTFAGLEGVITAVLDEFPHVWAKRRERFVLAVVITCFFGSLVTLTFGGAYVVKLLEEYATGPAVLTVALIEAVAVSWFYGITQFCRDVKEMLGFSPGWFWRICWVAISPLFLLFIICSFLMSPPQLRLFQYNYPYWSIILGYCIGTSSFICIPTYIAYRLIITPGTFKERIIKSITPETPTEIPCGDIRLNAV
Sequence of cGMP-inhibited 3',5'-cyclic phosphodiesterase 3A (Q14432 whole entry): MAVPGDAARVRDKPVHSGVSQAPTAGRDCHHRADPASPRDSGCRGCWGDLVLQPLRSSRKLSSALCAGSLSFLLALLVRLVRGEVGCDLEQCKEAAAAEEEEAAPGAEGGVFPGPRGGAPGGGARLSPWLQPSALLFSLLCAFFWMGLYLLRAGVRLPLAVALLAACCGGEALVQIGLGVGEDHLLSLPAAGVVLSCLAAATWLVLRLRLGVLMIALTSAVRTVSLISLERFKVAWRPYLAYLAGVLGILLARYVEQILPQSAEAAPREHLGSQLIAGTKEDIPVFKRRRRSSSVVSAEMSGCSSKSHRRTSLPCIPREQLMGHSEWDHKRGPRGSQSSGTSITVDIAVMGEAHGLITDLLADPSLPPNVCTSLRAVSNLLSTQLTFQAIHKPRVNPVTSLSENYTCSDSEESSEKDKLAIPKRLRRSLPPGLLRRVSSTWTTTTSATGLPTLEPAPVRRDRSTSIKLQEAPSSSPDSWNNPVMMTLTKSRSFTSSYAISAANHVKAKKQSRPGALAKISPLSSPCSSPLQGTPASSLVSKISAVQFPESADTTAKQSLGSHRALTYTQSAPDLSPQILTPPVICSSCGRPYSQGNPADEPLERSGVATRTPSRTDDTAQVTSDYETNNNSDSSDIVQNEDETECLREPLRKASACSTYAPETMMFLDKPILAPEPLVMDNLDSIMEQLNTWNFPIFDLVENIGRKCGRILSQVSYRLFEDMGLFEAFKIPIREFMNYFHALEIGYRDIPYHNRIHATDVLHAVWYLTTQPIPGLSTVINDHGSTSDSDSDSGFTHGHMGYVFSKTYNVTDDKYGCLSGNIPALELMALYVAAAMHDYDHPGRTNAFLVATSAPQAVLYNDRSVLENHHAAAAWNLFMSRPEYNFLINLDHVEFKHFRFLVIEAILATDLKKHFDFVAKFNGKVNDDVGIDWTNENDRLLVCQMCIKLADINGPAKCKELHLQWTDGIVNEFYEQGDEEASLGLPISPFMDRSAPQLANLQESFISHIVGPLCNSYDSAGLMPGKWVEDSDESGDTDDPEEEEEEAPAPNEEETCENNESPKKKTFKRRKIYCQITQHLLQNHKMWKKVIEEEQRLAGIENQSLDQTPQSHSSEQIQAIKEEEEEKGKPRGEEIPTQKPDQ
Sequence of 3',5'-cyclic-AMP phosphodiesterase 4A (P27815 whole entry): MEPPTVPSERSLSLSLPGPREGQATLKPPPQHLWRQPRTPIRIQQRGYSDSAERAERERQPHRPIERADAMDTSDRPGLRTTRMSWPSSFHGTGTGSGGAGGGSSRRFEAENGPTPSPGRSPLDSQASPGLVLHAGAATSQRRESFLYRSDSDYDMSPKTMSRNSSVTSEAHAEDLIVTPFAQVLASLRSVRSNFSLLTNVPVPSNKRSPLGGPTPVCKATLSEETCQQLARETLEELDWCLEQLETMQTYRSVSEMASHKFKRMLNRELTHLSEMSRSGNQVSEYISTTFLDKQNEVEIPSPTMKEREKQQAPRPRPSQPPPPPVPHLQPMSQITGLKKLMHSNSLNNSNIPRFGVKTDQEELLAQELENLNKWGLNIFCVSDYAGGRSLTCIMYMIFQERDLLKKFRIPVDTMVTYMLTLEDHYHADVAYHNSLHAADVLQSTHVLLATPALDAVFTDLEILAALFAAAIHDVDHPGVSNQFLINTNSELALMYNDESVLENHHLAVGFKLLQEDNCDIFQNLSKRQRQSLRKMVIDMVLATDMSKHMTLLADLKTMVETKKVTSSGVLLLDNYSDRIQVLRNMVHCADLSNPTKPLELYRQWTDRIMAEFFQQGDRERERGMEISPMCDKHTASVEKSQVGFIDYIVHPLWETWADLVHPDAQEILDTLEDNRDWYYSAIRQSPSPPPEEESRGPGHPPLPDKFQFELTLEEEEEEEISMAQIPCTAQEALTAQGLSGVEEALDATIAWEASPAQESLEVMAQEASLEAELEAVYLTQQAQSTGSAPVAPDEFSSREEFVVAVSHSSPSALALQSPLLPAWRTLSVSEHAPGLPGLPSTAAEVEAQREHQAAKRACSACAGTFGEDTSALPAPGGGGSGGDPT
Sequence of Voltage-gated inwardly rectifying potassium channel KCNH2 (Q12809 whole entry): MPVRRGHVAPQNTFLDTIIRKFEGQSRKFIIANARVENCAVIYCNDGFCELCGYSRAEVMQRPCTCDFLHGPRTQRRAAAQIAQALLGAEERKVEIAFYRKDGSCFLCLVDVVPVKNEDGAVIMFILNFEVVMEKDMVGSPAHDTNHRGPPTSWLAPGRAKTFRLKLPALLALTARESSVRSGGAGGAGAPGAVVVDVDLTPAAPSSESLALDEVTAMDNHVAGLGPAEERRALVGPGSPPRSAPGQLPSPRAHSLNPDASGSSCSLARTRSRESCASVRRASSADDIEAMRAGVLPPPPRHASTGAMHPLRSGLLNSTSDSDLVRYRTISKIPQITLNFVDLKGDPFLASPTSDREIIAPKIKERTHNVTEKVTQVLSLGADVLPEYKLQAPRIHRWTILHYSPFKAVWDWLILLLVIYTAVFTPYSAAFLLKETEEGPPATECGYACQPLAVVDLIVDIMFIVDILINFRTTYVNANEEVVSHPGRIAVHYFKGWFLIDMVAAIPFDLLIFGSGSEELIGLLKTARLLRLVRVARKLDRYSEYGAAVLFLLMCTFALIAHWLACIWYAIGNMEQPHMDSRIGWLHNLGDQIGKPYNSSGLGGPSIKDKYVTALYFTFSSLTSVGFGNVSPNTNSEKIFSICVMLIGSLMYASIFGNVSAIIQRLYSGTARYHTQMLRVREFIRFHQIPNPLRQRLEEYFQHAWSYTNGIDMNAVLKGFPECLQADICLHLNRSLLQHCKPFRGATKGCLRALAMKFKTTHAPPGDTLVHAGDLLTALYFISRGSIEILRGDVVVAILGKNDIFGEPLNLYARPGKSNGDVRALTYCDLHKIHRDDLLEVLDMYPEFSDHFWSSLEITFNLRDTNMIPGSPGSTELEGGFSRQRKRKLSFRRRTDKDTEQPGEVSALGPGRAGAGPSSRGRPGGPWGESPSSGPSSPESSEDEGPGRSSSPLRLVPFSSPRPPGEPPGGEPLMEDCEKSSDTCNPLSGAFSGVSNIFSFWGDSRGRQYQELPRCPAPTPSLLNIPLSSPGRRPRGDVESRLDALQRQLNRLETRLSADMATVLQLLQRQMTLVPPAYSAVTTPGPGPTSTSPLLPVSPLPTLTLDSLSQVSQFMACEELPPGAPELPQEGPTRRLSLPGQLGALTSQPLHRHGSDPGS
Sequence of Mu-type opioid receptor (P35372 whole entry): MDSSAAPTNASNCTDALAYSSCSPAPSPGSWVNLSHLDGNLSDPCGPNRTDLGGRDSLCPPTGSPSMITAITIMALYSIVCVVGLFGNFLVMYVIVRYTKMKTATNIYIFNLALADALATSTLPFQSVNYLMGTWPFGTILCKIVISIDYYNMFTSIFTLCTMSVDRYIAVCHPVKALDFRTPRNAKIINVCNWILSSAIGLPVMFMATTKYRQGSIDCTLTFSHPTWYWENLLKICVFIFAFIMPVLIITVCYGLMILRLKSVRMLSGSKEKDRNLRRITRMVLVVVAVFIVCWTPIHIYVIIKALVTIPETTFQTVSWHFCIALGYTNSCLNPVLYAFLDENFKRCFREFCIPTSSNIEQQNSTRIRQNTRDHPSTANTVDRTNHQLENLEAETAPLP
Sequence of Histamine H3 receptor (Q9Y5N1 whole entry): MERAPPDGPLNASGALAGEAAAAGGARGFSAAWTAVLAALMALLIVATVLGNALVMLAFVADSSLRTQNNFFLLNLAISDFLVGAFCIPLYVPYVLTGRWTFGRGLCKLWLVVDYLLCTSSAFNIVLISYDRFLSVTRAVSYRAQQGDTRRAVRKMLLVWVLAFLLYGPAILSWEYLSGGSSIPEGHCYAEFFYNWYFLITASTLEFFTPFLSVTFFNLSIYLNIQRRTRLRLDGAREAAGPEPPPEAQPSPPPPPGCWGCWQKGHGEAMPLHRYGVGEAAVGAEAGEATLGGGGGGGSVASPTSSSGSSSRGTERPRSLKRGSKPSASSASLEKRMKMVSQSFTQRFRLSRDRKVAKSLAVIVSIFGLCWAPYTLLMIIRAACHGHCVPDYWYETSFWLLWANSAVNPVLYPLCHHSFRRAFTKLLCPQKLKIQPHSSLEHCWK

As to `CCCCCNC(=N)N/N=C/c1c[nH]c2ccc(OC)cc12` [TEGASEROD], the AC50 in experiment [1] was more than 30 µM; in experiment [2], 2.57 µM; in [3], 6.59 µM; in [4], 1.16 µM; in experiment [5], 4.8 µM; in experiment [6], 2.65 µM. The AC50 in experiment [7] was more than 3 µM; on Histamine H3 receptor, more than 30 µM; on Mu-type opioid receptor, 2.32 µM; in experiment [8] it was more than 3 µM; in [9], 20.4 µM; in experiment [10], more than 30 µM.
For the molecule `NC(=O)C[C@H](N)C(=O)O` [ASPARAGINE], the AC50 in experiment [1], in experiment [2], in [3], in experiment [4], in experiment [6] and in experiment [7] was more than 30 µM in each case. For the same molecule, the AC50 (at Histamine H3 receptor; at Mu-type opioid receptor; in experiment [8]; in experiment [9]; in experiment [10]) was more than 30 µM each time.
Turning to `OC[C@@H](O)[C@H](O)[C@@H](O)CO` [XYLITOL], the AC50 in [1], in experiment [2], in [3], in experiment [4], in experiment [5] and in experiment [6] was more than 30 µM in each case. Also, the AC50 (in [7]; at Histamine H3 receptor; at Mu-type opioid receptor; in experiment [8]; in experiment [9]; in experiment [10]) was more than 30 µM throughout.
`CN1CCN(C2=Nc3ccccc3Sc3ccc(Cl)cc32)CC1` [CLOTHIAPINE]: the AC50 was more than 30 µM in experiment [1]; 4.87 µM in experiment [2]; 0.52 µM in experiment [3]; 0.01 µM in experiment [4]; 4.1 µM in experiment [5]; more than 30 µM in experiment [6]. In addition, the AC50 in experiment [7] is 0.42 µM; at Histamine H3 receptor it was more than 30 µM; on Mu-type opioid receptor, 1.1 µM; in experiment [8] it was more than 10 µM; in experiment [9], more than 30 µM; in experiment [10] it was more than 30 µM.
As to `Nc1ccc2cc3ccc(N)cc3nc2c1` [PROFLAVINE], the AC50 in experiment [1] was more than 30 µM; in experiment [2], 26.6 µM; in experiment [3] it was 2.61 µM; in experiment [5], 5 µM; in experiment [6], 5.49 µM; at Histamine H3 receptor it was 16.3 µM. The concentration at half-maximal activity (AC50) at Mu-type opioid receptor was 3.64 µM; in experiment [8], more than 0.3 µM; in experiment [9] it was 22.1 µM; in experiment [10], more than 30 µM.
Take `CC(=O)Oc1ccc2c(c1)CC[C@@H]1[C@@H]2CC[C@]2(C)[C@@H](O)CC[C@@H]12` [ESTRADIOL ACETATE]: the AC50 in [1] was more than 30 µM; in experiment [2], more than 30 µM; in [3], more than 30 µM; in [4], 15 µM; in experiment [5], more than 30 µM; in [6], more than 3 µM. In addition, the AC50 in [7] is 7.24 µM; on Histamine H3 receptor, more than 30 µM; on Mu-type opioid receptor, 9.04 µM; in experiment [8], more than 30 µM; in experiment [9] it was more than 30 µM; in [10] it was more than 30 µM.
Take `Cc1ccccc1OCC(O)CO` (centres undefined) [MEPHENESIN]: the AC50 in experiment [1], in experiment [2], in experiment [3], in experiment [4], in experiment [5] and in experiment [6] was more than 30 µM in each case. The half-maximal activity concentration (AC50) (in experiment [7]; on Histamine H3 receptor; at Mu-type opioid receptor; in [8]; in experiment [9]; in experiment [10]) was more than 30 µM each time.
As to `Cc1cc(OP(=O)(O)O)c2ccccc2c1OP(=O)(O)O` [MENADIOL SODIUM DIPHOSPHATE], the AC50 in experiment [1], in [2], in experiment [3], in experiment [4], in experiment [6] and in [7] was more than 30 µM throughout. In addition, the half-maximal activity concentration (AC50) (at Histamine H3 receptor; at Mu-type opioid receptor; in experiment [8]; in experiment [9]; in experiment [10]) was more than 30 µM in each case.
As to `Cc1cc(C)c(NC(=O)CN(CC(=O)O)CC(=O)O)c(C)c1Br` [MEBROFENIN], the concentration at half-maximal activity (AC50) (in [1]; in experiment [2]; in experiment [3]; in experiment [5]; in experiment [6]; at Histamine H3 receptor) was more than 30 µM in each case. Moreover, the half-maximal activity concentration (AC50) (at Mu-type opioid receptor; in [9]; in experiment [10]) was more than 30 µM in each case.
For `C[S+](CC[C@H](N)C(=O)[O-])C[C@H]1O[C@@H](n2cnc3c(N)ncnc32)[C@H](O)[C@@H]1O` (some centres undefined) [ADEMETIONINE], the AC50 in experiment [1], in experiment [2], in [3], in experiment [4], in experiment [6] and in experiment [7] was more than 30 µM in each case. The half-maximal activity concentration (AC50) (on Histamine H3 receptor; on Mu-type opioid receptor; in experiment [8]; in experiment [9]; in experiment [10]) was more than 30 µM each time.
For the molecule `CCOC(=O)[C@H](CCc1ccccc1)N[C@@H](C)C(=O)N1CC2(C[C@H]1C(=O)O)SCCS2`, the AC50 in experiment [1], in experiment [2], in experiment [3], in experiment [4], in experiment [5] and in experiment [6] was more than 30 µM each time. In addition, the AC50 (in experiment [7]; at Histamine H3 receptor; on Mu-type opioid receptor; in [8]; in experiment [9]; in [10]) was more than 30 µM in each case.
For the molecule `NC1=NCC2c3ccccc3Cc3ccccc3N12` (centres undefined) [EPINASTINE], the concentration at half-maximal activity (AC50) is more than 30 µM in experiment [1]; 10.3 µM in [2]; more than 30 µM in [3]; 2.53 µM in experiment [4]; more than 30 µM in experiment [6]; more than 30 µM in experiment [7]. In addition, the AC50 on Histamine H3 receptor is more than 30 µM; at Mu-type opioid receptor, 17.4 µM; in experiment [8], more than 30 µM; in experiment [9], more than 30 µM; in [10] it was more than 30 µM.
For `Nc1ccncc1N` [AMIFAMPRIDINE], the AC50 in experiment [1], in [2], in experiment [3], in experiment [4], in experiment [5] and in experiment [6] was more than 30 µM in each case. The AC50 (in experiment [7]; on Histamine H3 receptor; at Mu-type opioid receptor; in experiment [8]; in experiment [9]; in experiment [10]) was more than 30 µM in each case.
Turning to `O=C(O)c1ccccc1C(=O)Nc1ccc(S(=O)(=O)Nc2nccs2)cc1` [PHTHALYLSULFATHIAZOLE], the AC50 is more than 30 µM in experiment [1]; more than 30 µM in [2]; more than 30 µM in experiment [3]; more than 30 µM in experiment [4]; more than 30 µM in experiment [5]; 20 µM in experiment [6]. For the same molecule, the AC50 in [7] is more than 30 µM; at Histamine H3 receptor, more than 30 µM; at Mu-type opioid receptor, more than 30 µM; in experiment [8] it was more than 30 µM; in [9] it was 8.95 µM; in experiment [10] it was more than 30 µM.

Broadly, the AC50 is the midpoint of the concentration-response curve, whichever way the signal moves.

The values above are taken from ChEMBL document CHEMBL5291721, “A preclinical secondary pharmacology resource illuminates target-adverse drug reaction associations of marketed drugs” (Nat Commun, 2023).
